Viability data for 47 molecules are collected here from article PMC11995724, “Antibiotic target discovery by integrated phenotypic and activity-based profiling of electrophilic fragments” (Cell chemical biology, 2025).

What is called viability is a read-out of living cells in per cent, often relative to untreated cells.

This data set in a line: in vitro. Particulars: human, hek293t cells.
In the case of `C=CC(=O)N1CCC(C(=O)N(C)C2CCCc3c2cnn3C)CC1` (centres unmarked) [2-P12, N-methyl-N-(1-methyl-4,5,6,7-tetrahydro-1H-indazol-4-yl)-1-(prop-2-enoyl)piperidine-4-carboxamide], the viability at 48 h, 25 µM amounted to 78.2%. In the case of `C=CC(=O)NCc1nc(C2CC2)oc1C` [2-P13, N-[(2-cyclopropyl-5-methyl-1,3-oxazol-4-yl)methyl]prop-2-enamide] it was 52.6%; in that of `C=CC(=O)N1CCC(C(=O)NCC(O)c2c(F)cccc2F)CC1` (centres unmarked) [2-P14, N-[2-(2,6-difluorophenyl)-2-hydroxyethyl]-1-(prop-2-enoyl)piperidine-4-carboxamide], 102%. With `C=CC(=O)NCC1(c2ccnn2C)CC1` [2-P15, N-{[1-(1-methyl-1H-pyrazol-5-yl)cyclopropyl]methyl}prop-2-enamide] the figure was 78.8%; with `C=CC(=O)NCCC(=O)N1CCCN(c2cccnn2)CC1` [2-P16, N-{3-oxo-3-[4-(pyridazin-3-yl)-1,4-diazepan-1-yl]propyl}prop-2-enamide], 77.8%. In the case of `C=CC(=O)NC(C)(C)c1ccc(S(N)(=O)=O)cc1F` [2-P17, N-[2-(2-fluoro-4-sulfamoylphenyl)propan-2-yl]prop-2-enamide] it was 58.6%. On to `C=CC(=O)Nc1cc(NC(=O)[C@@H]2CSCN2C(=O)CC)ccc1F` [2-P18, (4R)-N-[4-fluoro-3-(prop-2-enamido)phenyl]-3-propanoyl-1,3-thiazolidine-4-carboxamide], for which the viability at 48 h, 25 µM is 91.2%. In the case of `C=CC(=O)NCc1ccc(S(=O)(=O)NC2CC2)cc1` [2-P19, N-{[4-(cyclopropylsulfamoyl)phenyl]methyl}prop-2-enamide] it was 62.3%; in that of `C=CC(=O)N1CCC(C(=O)NC2CCc3ncnn3C2)CC1` (centres unmarked) [2-P20, 1-(prop-2-enoyl)-N-{5H,6H,7H,8H-[1,2,4]triazolo[1,5-a]pyridin-6-yl}piperidine-4-carboxamide], 98%. With `C=CC(=O)NCc1ncc(C)o1` [2-P21, N-[(5-methyl-1,3-oxazol-2-yl)methyl]prop-2-enamide] the figure was 48.8%. On to `C=CC(=O)N(C)CC(=O)NC1CCCN(c2ccc(F)cc2F)C1=O` (centres unmarked) [2-P22, N-({[1-(2,4-difluorophenyl)-2-oxopiperidin-3-yl]carbamoyl}methyl)-N-methylprop-2-enamide], for which the viability at 48 h, 25 µM was 24.4%. With `C=CC(=O)NCC(C)(C)c1coc(-c2ccccc2)n1` [3-A03, N-[2-methyl-2-(2-phenyl-1,3-oxazol-4-yl)propyl]prop-2-enamide] the figure was 45.6%; with `C=CC(=O)N(C)CC(=O)N1CCn2cc(C(F)(F)F)nc2C1` [3-A04, N-methyl-N-{2-oxo-2-[2-(trifluoromethyl)-5H,6H,7H,8H-imidazo[1,2-a]pyrazin-7-yl]ethyl}prop-2-enamide], 60.6%. For the molecule `C=CC(=O)NCC1CN(Cc2cccc(C)c2)CCO1` (centres unmarked) [3-A05, N-({4-[(3-methylphenyl)methyl]morpholin-2-yl}methyl)prop-2-enamide], the viability at 48 h, 25 µM amounted to 41%.

With `C=CC(=O)N(C)CC(=O)NC1CCC(N2CCCCC2=O)CC1` (centres unmarked) [3-A06, N-methyl-N-({[4-(2-oxopiperidin-1-yl)cyclohexyl]carbamoyl}methyl)prop-2-enamide], the viability at 48 h, 25 µM was 62.1%.

`C=CC(=O)N1CCc2[nH]cnc2C1c1ccnn1C` (centres unmarked) [3-A07, 1-[4-(1-methyl-1H-pyrazol-5-yl)-1H,4H,5H,6H,7H-imidazo[4,5-c]pyridin-5-yl]prop-2-en-1-one]: the viability at 48 h, 25 µM amounted to 29.2%.

Take `C=CC(=O)N(CC)CC(=O)N1CCC(c2nnc(C)o2)CC1` [3-A08, N-ethyl-N-{2-[4-(5-methyl-1,3,4-oxadiazol-2-yl)piperidin-1-yl]-2-oxoethyl}prop-2-enamide]: the viability at 48 h, 25 µM amounted to 66.3%.

Consider `C=CC(=O)N1CCOC(c2ccc(F)c(C)c2)C1` (centres unmarked) [3-A09, 1-[2-(4-fluoro-3-methylphenyl)morpholin-4-yl]prop-2-en-1-one], for which the viability at 48 h, 25 µM is 38.4%. In the case of `C=CC(=O)NC1CCS(=O)(=O)C(C)C1` (centres unmarked) [3-A10, N-(2-methyl-1,1-dioxo-1lambda6-thian-4-yl)prop-2-enamide], the viability at 48 h, 25 µM was 68.8%. For `C=CC(=O)N1CCC(Cc2nc(CC)no2)CC1` [3-A11, 1-{4-[(3-ethyl-1,2,4-oxadiazol-5-yl)methyl]piperidin-1-yl}prop-2-en-1-one], the viability at 48 h, 25 µM turned out to be 60.7%.

Consider `C=CC(=O)N(C)CC(=O)NC1CCCN(c2cc(C)nc(C)n2)C1` (centres unmarked) [3-A12, N-({[1-(2,6-dimethylpyrimidin-4-yl)piperidin-3-yl]carbamoyl}methyl)-N-methylprop-2-enamide], for which the viability at 48 h, 25 µM amounted to 74.4%. On to `C=CC(=O)N1CCCC(c2nc(N(C)C)no2)C1` (centres unmarked) [3-A13, 1-{3-[3-(dimethylamino)-1,2,4-oxadiazol-5-yl]piperidin-1-yl}prop-2-en-1-one], for which the viability at 48 h, 25 µM came to 29.9%.

`C=CC(=O)N(CC)CC(=O)N1CCc2[nH]nc(C(F)(F)F)c2C1` [3-A14, N-ethyl-N-{2-oxo-2-[3-(trifluoromethyl)-1H,4H,5H,6H,7H-pyrazolo[4,3-c]pyridin-5-yl]ethyl}prop-2-enamide]: the viability at 48 h, 25 µM amounted to 64.2%. As for `C=CC(=O)NC(C)c1nnnn1C` (centres unmarked) [3-A15, N-[1-(1-methyl-1H-1,2,3,4-tetrazol-5-yl)ethyl]prop-2-enamide], the viability at 48 h, 25 µM came out at 23.9%. With `C=CC(=O)N1CCC(C(=O)NCC2COC3(CCCC3)O2)CC1` (centres unmarked) [3-A16, N-({1,4-dioxaspiro[4.4]nonan-2-yl}methyl)-1-(prop-2-enoyl)piperidine-4-carboxamide], the viability at 48 h, 25 µM stood at 73.4%. With `C=CC(=O)N1CCOC(c2nc(C)cs2)C1` (centres unmarked) [3-A17, 1-[2-(4-methyl-1,3-thiazol-2-yl)morpholin-4-yl]prop-2-en-1-one] the figure was 26.2%. For the molecule `C=CC(=O)N1CCOC(CNC(=O)NC)C1` (centres unmarked) [3-A18, 3-methyl-1-{[4-(prop-2-enoyl)morpholin-2-yl]methyl}urea], the viability at 48 h, 25 µM came out at 93.3%.

Regarding `C=CC(=O)N1CCN(S(=O)(=O)c2ccc(C(C)(C)C)cc2)CC1` [3-A19, 1-[4-(4-tert-butylbenzenesulfonyl)piperazin-1-yl]prop-2-en-1-one], the viability at 48 h, 25 µM was 24.5%. In the case of `C=CC(=O)NC(C)c1ccc(S(=O)(=O)N(C)C)cc1` (centres unmarked) [3-A20, N-{1-[4-(dimethylsulfamoyl)phenyl]ethyl}prop-2-enamide] it was 51.5%. In the case of `C=CC(=O)N1CCCN(C(=O)c2ccc(OC)cc2)CC1` [3-A21, 1-[4-(4-methoxybenzoyl)-1,4-diazepan-1-yl]prop-2-en-1-one] it was 53.5%; in that of `C=CC(=O)N(C)C[C@@H]1CCC(=O)N1` [3-A22, N-methyl-N-{[(2S)-5-oxopyrrolidin-2-yl]methyl}prop-2-enamide], 150%. With `C=CC(=O)N1CCC(C(=O)NCc2nccn2-c2ccccc2)CC1` [3-B03, N-[(1-phenyl-1H-imidazol-2-yl)methyl]-1-(prop-2-enoyl)piperidine-4-carboxamide], the viability at 48 h, 25 µM was 86.5%. With `C=CC(=O)N1CC(n2nc(C)cc2C)C1` [3-B04, 1-[3-(3,5-dimethyl-1H-pyrazol-1-yl)azetidin-1-yl]prop-2-en-1-one] the figure was 77.4%; with `C=CC(=O)NCc1ccc(C(=O)N2CCOC3(CCCC3)C2)cc1` [3-B05, N-[(4-{6-oxa-9-azaspiro[4.5]decane-9-carbonyl}phenyl)methyl]prop-2-enamide], 69.9%; with `C=CC(=O)Nc1ccc(OC)c(COC)c1` [3-B06, N-[4-methoxy-3-(methoxymethyl)phenyl]prop-2-enamide], 89.7%. For `C=CC(=O)N1CCC(C(=O)Nc2ccn(Cc3ccccn3)n2)CC1` [3-B07, 1-(prop-2-enoyl)-N-{1-[(pyridin-2-yl)methyl]-1H-pyrazol-3-yl}piperidine-4-carboxamide], the viability at 48 h, 25 µM came out at 53.3%. In the case of `C=CC(=O)Nc1ccc(C(=O)NC2CC(C)(C)OC2=O)cc1` (centres unmarked) [3-B08, N-(5,5-dimethyl-2-oxooxolan-3-yl)-4-(prop-2-enamido)benzamide] it was 82.4%. In the case of `C=CC(=O)NC1(C(N)=O)CCCC1C` (centres unmarked) [3-B09, 2-methyl-1-(prop-2-enamido)cyclopentane-1-carboxamide] it was 54.5%.

`C=CC(=O)Nc1cn(CCC)cn1` [3-B10, N-(1-propyl-1H-imidazol-4-yl)prop-2-enamide]: the viability at 48 h, 25 µM was determined as 91.1%. Take `C=CC(=O)N[C@H](C)c1cnnn1C` [3-B11, N-[(1R)-1-(1-methyl-1H-1,2,3-triazol-5-yl)ethyl]prop-2-enamide]: the viability at 48 h, 25 µM came to 73.8%. As to `C=CC(=O)N1CCC(C(=O)NCc2nc(C)c(C)s2)CC1` [3-B12, N-[(4,5-dimethyl-1,3-thiazol-2-yl)methyl]-1-(prop-2-enoyl)piperidine-4-carboxamide], the viability at 48 h, 25 µM is 87.5%. Regarding `C=CC(=O)NC(C)c1ccc(-n2ccnn2)cc1` (centres unmarked) [3-B13, N-{1-[4-(1H-1,2,3-triazol-1-yl)phenyl]ethyl}prop-2-enamide], the viability at 48 h, 25 µM stood at 59.2%. With `C=CC(=O)N1CCC(C(=O)N[C@@H]2C[C@H]2c2ccc(Cl)c(F)c2)CC1` [3-B14, N-[(1R,2S)-2-(4-chloro-3-fluorophenyl)cyclopropyl]-1-(prop-2-enoyl)piperidine-4-carboxamide] the figure was 78.3%. In the case of `C=CC(=O)Nc1ccc(C(=O)N2CCC(C(C)C)CC2)cc1` [3-B15, N-{4-[4-(propan-2-yl)piperidine-1-carbonyl]phenyl}prop-2-enamide] it was 27.5%; in that of `C=CC(=O)N1CCn2c(cnc2C(F)(F)F)C1` [3-B16, 1-[3-(trifluoromethyl)-5H,6H,7H,8H-imidazo[1,5-a]pyrazin-7-yl]prop-2-en-1-one], 81.8%; in that of `C=CC(=O)NCC1CCN(c2ccccc2)C1` (centres unmarked) [3-B17, N-[(1-phenylpyrrolidin-3-yl)methyl]prop-2-enamide], 66.8%. `C=CC(=O)NCc1ccnc(-n2cncn2)c1` [3-B18, N-{[2-(1H-1,2,4-triazol-1-yl)pyridin-4-yl]methyl}prop-2-enamide]: the viability at 48 h, 25 µM was 92.7%.
